Results taken from US20240148835A1, “TREATING DISORDERS ASSOCIATED WITH DYRK1A DYSFUNCTION” (UNIVERSITY OF FLORIDA RESEARCH FOUNDATION, INCORPORATED, priority 2021, published 2024).
“Also recorded” adds a separate entry of the source.

System: neonatal cHets
Assay: Neonatal GSK3 inhibitor SB216763 treatment: cortex mass, isotropic fractionator cell number and density
Type: in vivo, mouse
Protocol: We utilized the previously mentioned neonatal paradigm to inject cHets daily with GSK3 inhibitor SB216763 or vehicle from P0 to P7 (FIG. 25A).
(1-3)IGF-1 was acquired from VWR/Bachem (catalog #H-2468.1000) and dissolved in saline with 0.01% BSA fresh every day. Intraperitoneal injections of 10 mg kg′ (1-3)IGF-1 or vehicle were delivered daily at 8 a.m. starting on P14 and ending on P85. […] The S6K1 inhibitor PF-4708671 was acquired from Medkoo Biosciences (#406432) dissolved in 10% DMSO, 10% tween 80 and 80% water. (1-3)IGF-1 (10 mg kg′) and PF-4708671 (50 mg kg^−1) or vehicle were injected subcutaneously into pups from P0 to P7. Rapamycin was acquired from LC laboratories (R-5000) and dissolved in 4% ethanol, 5% tween-80, and 5% PEG400 in PBS. (1-3)IGF-1 (10 mg kg′) and Rapamycin (1 mg kg′) or vehicle were injected subcutaneously into pups from P0 to P7. SB216763 was acquired from TOCRIS (#1616) and dissolved in 5% DMSO and 0.9% saline in dH20. SB216763 (0.5 mg kg′) was injected subcutaneously into pups from P0 to P7.
Adult animals were perfused with 4% PFA, and pups underwent rapid decapitation and dissection. Brains were fixed in 4% PFA for one week, and then the cortex was dissected out and dissociated in a 7 ml glass tissue homogenizer (Kontes Glass) in dissociation buffer (1% Triton X-100 in 40 mM sodium citrate). 1 ml of nuclei was removed and stained with 1:50 DAPI (Invitrogen, catalog #D3571) before being loaded onto a hemocytometer (Fisher Scientific, catalog #0267110). Per animal, 6 technical replicates of 10 μl nuclei were imaged and counted in the hemocytometer (0.1 μl nuclei counted per technical replicate). After calculating the total cell number per cortex, the number of cells was divided by mg of cortex to obtain density.

[1] = 0.5 mg kg subcutaneous daily P0 to P7

Cn1cc(C2=C(c3ccc(Cl)cc3Cl)C(=O)NC2=O)c2ccccc21 [SB216763]
cellular density [1]: no effect on cellular density; also recorded: unaltered by any genotype or treatment
cortex mass of controls [1]: no effect; also recorded: unaltered by treatment
cortical cell number of cHets [1]: restored the decreased cellular number; also recorded: restored by SB216763 treatment
cortical cell number of controls [1]: no effect on SB216763-treated controls
cortex mass of cHets (0.5 mg kg subcutaneous daily P0 to P7, vs vehicle-treated controls): normalized cortex mass; also recorded: restored by treatment with SB216763
